Measurements: patent US20220411480A1, “ANTITUMOR PEPTIDE AND USE THEREOF” (TOAGOSEI CO., LTD, priority 2018, published 2022)
Residues, ends and D or L forms follow the SMILES beside them.

Experiments:
[1] = Antitumor activity evaluation test (2), cell viability by Cell Counting Kit-8 (WST-8); format: cell-based, human; conditions: peptide 25 μM, 48 hours, relative to no peptide = 100%; read-out: cell viability of H2444 cells
Protocol: (§1) A2058 cells and MCF-12F cells were cultured and prepared so that the number of cells per well in a 96-well plate was about 5×10^3. An amount of the culture medium in this case was 100 μL per well.
(§2) Next, the 96-well plate was placed in a CO2 incubator and pre-incubated under conditions of 37° C. and 5% CO2 for about 1 day (21 hours to 24 hours).
(§3) Then, peptide-containing test culture mediums for each concentration were prepared so that the concentrations of the sample peptides to be evaluated were 12.5 μM and 25 μM, and supplied to wells (that is, wells after the pre-incubation) in which 90μL of cells to be evaluated were cultured in each well. Then, the 96-well plate was returned to the CO2 incubator and incubated under conditions of 37° C. and 5% CO2 for 48 hours.
(§4) Here, the number of test wells (n) at peptide concentrations in peptide addition test groups was set to 3. Therefore, the value of the result shown in the following table is an average value of the results obtained in three test wells. First, the cell viability (%) was determined as follows. […]
(§5) After the incubation was completed, the cell culture solution to which the reagent was added was collected and the cell viability (%) was evaluated according to a colorimetric method in which an absorbance at a wavelength of 450 nm (value corrected by the absorbance at a wavelength of 650 nm: A450-A650) was measured based on the reduction of the tetrazolium salt. Specifically, a measured value (measured absorbance) of a comparative test group in which the above incubation was performed for 48 hours simply in a culture medium containing no peptide was set as a cell viability of 100%, and the cell viability (%) was calculated from the measured absorbance of each test cell line as a relative value.
(§6) The antitumor activity and antitumor cell selective antitumor activity of Samples 2 and 6 of Test Example 1, with respect to a plurality of types of human-derived cultured tumor cells were evaluated. […]
(§7) Then, the cell viability was calculated in the same processes as in Test Example 2. […]

[2] = system: human non-small cell lung cancer cell lines (H2444); assay: as above; format: cell-based; conditions: H2444 versus normal MCF-12F cells
Protocol: as §1, §2, §3, §4, §5, §6, §7

[3] = as above; format: cell-based, human; conditions: peptide 25 μM, 48 hours, 37° C. without CO2, relative to no peptide = 100%; read-out: cell viability of SW480 cells
Protocol: as §1, §2, §3
(§8) Here, the number of test wells (n) at peptide concentrations in peptide addition test groups was set to 3. Therefore, the value of the result shown in the following table is an average value of the results obtained in three test wells. First, the cell viability (%) was determined as follows.
(§9) After the incubation for 48 hours was completed, the culture medium in each well was replaced with 100 μL of a fresh culture medium containing no peptide, and additionally, 10μL of a cell proliferation measurement reagent “Cell Counting Kit-8” (product, commercially available from Dojindo Molecular Technologies, Inc.) containing a “water-soluble tetrazolium salt (WST-8)” as a coloring reagent was added to each well. Then, the 96-well plate was returned to the CO2 incubator and incubated under conditions of 37° C., and 5% CO2 for 1.5 hours to 2 hours.
as §5
(§10) The antitumor activity and antitumor cell selective antitumor activity of Samples 2 and 6 of Test Example 1, with respect to a plurality of types of human-derived cultured tumor cells were evaluated.
(§11) Specifically, currently commercially available human melanoma cell lines (SK-MELS), human non-small cell lung cancer cell lines (H2444), and human colorectal cancer cell lines (SW480) were used as test tumor cells. In addition, the above MCF-12F cells were used as normal cells for comparison.
(§12) Leibovitz's L-15 culture medium including 100 unit/mL of penicillin, 100 μg/mL of streptomycin, and 10% FBS (product, commercially available from Gibco)
(§13) Here, in the evaluation test using SW480 cell lines, the cells were cultured under conditions of 37° C. and without CO2.
(§14) Then, the cell viability was calculated in the same processes as in Test Example 2. Here, in this test example, the antitumor activity of Sample 6 with respect to SK-MELS cells, the antitumor activity of Sample 2 with respect to H2444 cells, and the antitumor activity of Sample 2 and Sample 6 with respect to SW480 cells were evaluated.
(§15) Next, a specific cell viability was calculated in the same processes as in Test Example 2. That is,
(§16) {(Test tumor cell survival rate)/(MCF-12F cell viability)}×100 was calculated as a specific cell viability of the tumor cells, and a test tumor cells selective antitumor activity with respect to normal cells was evaluated using such a specific cell viability as an index. […]

[4] = system: human colorectal cancer cell lines (SW480); assay: as above; format: cell-based; conditions: SW480 versus normal MCF-12F cells
Protocol: as §1, §2, §3, §8, §9, §5, §10, §11, §12, §13, §14, §15, §16

[5] = Antitumor activity evaluation test (1), cell viability by Cell Counting Kit-8 (WST-8); format: cell-based, human; conditions: peptide 25 μM, 48 hours, relative to culture medium containing no peptide = 100%; read-out: A2058 cell viability (survival rate)
Protocol: (§17) The antitumor activity of the sample peptides synthesized in Test Example 1 was evaluated using human-derived cultured tumor cells as targets.
(§18) Specifically, currently commercially available human melanoma (A2058) cell lines were used as test tumor cells. In addition, a normal human mammary epithelial cell culture line (MCF-12F) was used for comparison. Here, culture solutions of respective cells are as follows. • (1) A2058 cells:
(§19) DMEM culture medium including 2 mM L-glutamine, 0.1 mM of non-essential amino acids, 50 units/mL of penicillin, 50 μg/mL of streptomycin, and 10% fetal bovine serum (FBS) (product, commercially available from Wako Pure Chemical Industries, Ltd.). • (2) MCF-12F cells:
(§20) DMEM/F12 culture medium including 20 ng/mL of recombinant EGF, 10 μg/mL of insulin, 0.5 μg/mL of hydrocortisone, and 10% FBS (product, commercially available from Wako Pure Chemical Industries, Ltd.).
as §1, §2, §3, §8, §9, §5
(§21) Specifically, a value (value multiplied by 100 for convenience) obtained by dividing the cell viability of target tumor cells (here, A2058 cells) when the sample peptides were added at a concentration of 12.5 μM or 25 μM measured as described above by the cell viability of comparative normal cells (here, MCF-12F cells) measured under the same conditions, that is,
(§22) {(A2058 cell viability)/(MCF-12F cell viability)}×100 was calculated as a specific cell viability of the tumor cells, and the test tumor cells selective antitumor activity with respect to normal cells was evaluated using such a specific cell viability as an index.

[6] = system: human melanoma (A2058) cell lines; assay: as above; format: cell-based; conditions: 48 hours, A2058 versus normal MCF-12F cells
Protocol: as §17, §18, §19, §20, §1, §2, §3, §8, §9, §5, §21, §22

[7] = Antitumor activity evaluation test (2), cell viability by Cell Counting Kit-8 (WST-8); format: cell-based, human; conditions: peptide 25 μM, 48 hours, relative to no peptide = 100%; read-out: cell viability of SK-MELS cells
Protocol: as §1, §2, §3, §4, §5, §6, §7

[8] = system: human melanoma cell lines (SK-MELS); assay: as above; format: cell-based; conditions: SK-MEL5 versus normal MCF-12F cells
Protocol: as §1, §2, §3, §4, §5, §6, §7

CC[C@H](C)[C@H](NC(=O)[C@H](CC(N)=O)NC(=O)[C@@H](NC(=O)[C@@H](N)CC(C)C)C(C)C)C(=O)N[C@H](C(=O)N[C@@H](CC(C)C)C(=O)N[C@@H](CO)C(=O)N[C@@H](CC(=O)O)C(=O)N[C@@H](CC(C)C)C(=O)N[C@@H](CC(C)C)C(=O)N[C@H](C(=O)NCC(=O)N[C@@H](C)C(=O)N[C@@H](C)C(=O)N[C@@H](Cc1ccc(O)cc1)C(=O)N[C@@H](CC(C)C)C(=O)N[C@@H](C)C(=O)N[C@@H](CC(N)=O)C(=O)N[C@H](C(=O)N[C@@H](CC(C)C)C(=O)N[C@@H](CC(C)C)C(=O)N[C@@H](CCCNC(=N)N)C(=O)N[C@@H](CCCCN)C(=O)N[C@@H](CCCCN)C(=O)N[C@@H](CCCNC(=N)N)C(=O)N[C@@H](CCCNC(=N)N)C(=O)N[C@@H](CCC(N)=O)C(=O)N[C@@H](CCCNC(=N)N)C(=O)N[C@@H](CCCNC(=N)N)C(=O)N[C@@H](CCCNC(=N)N)C(N)=O)C(C)C)[C@@H](C)O)[C@@H](C)O [Sample 2] (H-LVNITLSDLLTGAAYLANVLLRKKRRQRRR-NH2; N-terminus assumed)
viability [1]: 2.1% | Specific cell viability {(Test tumor cell survival rate)/(MCF-12F cell viability)}×100 ([2]; peptide 12.5 μM): 0.22 | Specific cell viability {(Test tumor cell survival rate)/(MCF-12F cell viability)}×100 ([2]; peptide 25 μM): 0.41 | viability [3]: 2.3% | Specific cell viability {(Test tumor cell survival rate)/(MCF-12F cell viability)}×100 ([4]; peptide 12.5 μM): 2.98 | Specific cell viability {(Test tumor cell survival rate)/(MCF-12F cell viability)}×100 ([4]; peptide 25 μM): 0.45 | viability [5]: 0.1% | Specific cell viability {(A2058 cell viability)/(MCF-12F cell viability)}×100 ([6]; peptide 12.5 μM): 4.79 | Specific cell viability {(A2058 cell viability)/(MCF-12F cell viability)}×100 ([6]; peptide 25 μM): 1.96

CSCC[C@H](NC(=O)[C@H](C)NC(=O)[C@@H](N)CC(C)C)C(=O)N[C@@H](C)C(=O)N[C@@H](C)C(=O)N[C@@H](C)C(=O)N[C@@H](C)C(=O)N[C@@H](Cc1c[nH]c2ccccc12)C(=O)NCC(=O)N[C@H](C(=O)N[C@@H](CO)C(=O)N[C@@H](CC(C)C)C(=O)N[C@@H](CC(C)C)C(=O)N[C@@H](CC(C)C)C(=O)NCC(=O)N[C@@H](CC(C)C)C(=O)N[C@@H](CC(C)C)C(=O)N1CCC[C@H]1C(=O)N[C@@H](C)C(=O)N[C@@H](CC(C)C)C(=O)NCC(=O)N[C@@H](CCCNC(=N)N)C(=O)N[C@@H](CCCCN)C(=O)N[C@@H](CCCCN)C(=O)N[C@@H](CCCNC(=N)N)C(=O)N[C@@H](CCCNC(=N)N)C(=O)N[C@@H](CCC(N)=O)C(=O)N[C@@H](CCCNC(=N)N)C(=O)N[C@@H](CCCNC(=N)N)C(=O)N[C@@H](CCCNC(=N)N)C(N)=O)C(C)C [Sample 6] (H-LAMAAAAWGVSLLLGLLPALGRKKRRQRRR-NH2; N-terminus assumed)
viability [7]: 1.9% | Specific cell viability {(Test tumor cell survival rate)/(MCF-12F cell viability)}×100 ([8]; peptide 12.5 μM): 0.25 | Specific cell viability {(Test tumor cell survival rate)/(MCF-12F cell viability)}×100 ([8]; peptide 25 μM): 0.22 | viability [3]: 20.2% | Specific cell viability {(Test tumor cell survival rate)/(MCF-12F cell viability)}×100 ([4]; peptide 12.5 μM): 1.14 | Specific cell viability {(Test tumor cell survival rate)/(MCF-12F cell viability)}×100 ([4]; peptide 25 μM): 2.38 | viability [5]: 0.5% | Specific cell viability {(A2058 cell viability)/(MCF-12F cell viability)}×100 ([6]; peptide 12.5 μM): 40 | Specific cell viability {(A2058 cell viability)/(MCF-12F cell viability)}×100 ([6]; peptide 25 μM): 5.88
